Tests used:
CFTR [1] = biological target: T1, CFTR (Homo sapiens, UniProt P13569); test: Membrane potential dye, Enteroid Assay B; type: cell-based; conditions: for EC50: read-out: Ent. B EC50; for Ent. B Max Activity: chloride transport as % of triple combination control (Enteroid Assay B)
Method: Base medium (ADF+++) consisted of Advanced DMEM/Ham's F12, 2 mM Glutamax, 10 mM HEPES, […] penicillin/streptomycin.
Intestinal enteroid maintenance medium (IEMM) consisted of ADF+++, 1× B27 supplement, 1× N2 supplement, 1.25 mM N-acetyl cysteine, 10 mM Nicotinamide, 50 ng/mL hEGF, 10 nM Gastrin, 1 μg/mL hR-spondin-1, 100 ng/mL hNoggin, TGF-b type 1 inhibitor A-83-01, 100 μg/mL Primocin, 10 μM P38 MAPK inhibitor SB202190.
Bath 1 Buffer consisted of 1 mM MgCl2, 160 mM NaCl, 4.5 mM KCl, 10 mM HEPES, 10 mM Glucose, 2 mM CaCl2).
Chloride Free Buffer consisted of 1 mM Magnesium Gluconate, 2 mM Calcium Gluconate, 4.5 mM Potassium Gluconate, 160 mM Sodium Gluconate, 10 mM HEPES, 10 mM Glucose.
BathI Dye Solution consisted of Bath 1 Buffer, 0.04% Pluronic F127, 20 μM Methyl Oxonol, 30 μM CaCCinh-A01, 30 μM Chicago Sky Blue.
Chloride Free Dye Solution consisted of Chloride Free Buffer, 0.04% Pluronic F127, 20 μM Methyl Oxonol, 30 μM CaCCinh-A01, 30 μM Chicago Sky Blue.
Chloride Free Dye Stimulation Solution consisted of Chloride Free Dye Solution, 10 μM forskolin, 100 μM IBMX, and 300 nM Compound III.
Human intestinal epithelial enteroid cells were obtained from the Hubrecht Institute for Developmental Biology and Stem Cell Research, Utrecht, The Netherlands and expanded in T-Flasks as previously described (Dekkers J F, Wiegerinck C L, de Jonge H R, Bronsveld I, Janssens H M, de Winter-de Groot K M, Brandsma A M, de Jong N W M, Bijvelds M J C, Scholte B J, Nieuwenhuis E E S, van den Brink S, Clevers H, van der Ent C K, Middendorp S and M Beekman J M. A functional CFTR assay using primary cystic fibrosis intestinal organoids. Nat Med. 2013 July;19(7):939-45.).
3. Enteroid Cell Harvesting and Seeding
Cells were recovered in cell recovery solution, collected by centrifugation at 650 rpm for 5 min at 4° C., resuspended in TrypLE and incubated for 5 min at 37° C. Cells were then collected by centrifugation at 650 rpm for 5 min at 4° C. and resuspended in IEMM containing 10 μM ROCK inhibitor (RI). The cell suspension was passed through a 40 μm cell strainer and resuspended at 1×10^6 cells/mL in IEMM containing 10 μM RI. Cells were seeded at 5000 cells/well into multi-well plates and incubated for overnight at 37° C., 95% humidity and 5% CO2 prior to assay.
5. Membrane Potential Dye, Enteroid Assay B
Enteroid cells were incubated with test compound in IEMM for 18-24 hours at 37° C., 95% humidity and 5% CO2. […] Briefly, cells were washed 5 times in Bath 1 Buffer. Bath 1 Dye Solution was added and the cells were incubated for 25 min at room temperature. Following dye incubation, cells were washed 3 times in Chloride Free Dye Solution. Chloride transport was initiated by addition of Chloride Free Dye Stimulation Solution and the fluorescence signal was read for 15 min. […] Chloride transport was then expressed as a percentage of the chloride transport following treatment with 1 μM (14S)-8-[3-(2-{Dispiro[2.0.2.1]heptan-7-yl}ethoxy)-1H-pyrazol-1-yl]-12,12-dimethyl-2λ^6-thia-3,9,11,18,23-pentaazatetracyclo[17.3.1.111,14.05,10]tetracosa-1(22),5,7,9,19(23),20-hexaene-2,2,4-trione, 3 μM (R)-1-(2,2-difluorobenzo[d][1,3]dioxol-5-yl)-N-(1-(2,3-dihydroxypropyl)-6-fluoro-2-(1-hydroxy-2-methylpropan-2-yl)-1H-indol-5-yl)cyclopropanecarboxamide and 300 nM acute N-[2,4-bis(1,1-dimethylethyl)-5-hydroxyphenyl]-1,4-dihydro-4-oxoquinoline-3-carboxamide triple combination control (% Activity).

CFTR [2] = biological target: T1, CFTR; test: Membrane potential dye, Enteroid Assay A; type: cell-based; conditions: for Ent. A Max Activity: chloride transport as % of triple combination control (Enteroid Assay A); for EC50: human enteroid cells, 18-24 hours, acute 10 μM forskolin and 300 nM ivacaftor, read-out: Ent. A EC50
Method in brief: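 Human intestinal enteroids incubated 18-24 h at 37 °C with test compound, then loaded with 20 μM methyl oxonol (with CaCC inhibitors). Chloride transport triggered in chloride-free buffer with 10 μM forskolin, 100 μM IBMX, 300 nM Compound III; fluorescence read 15 min, expressed as % of a triple-combination corrector/potentiator control.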

[3] = Table 8, human enteroid cells, 18-24 hours, acute 10 μM forskolin and 300 nM ivacaftor

T1 sequence (P13569 with tags, fused parts or gaps DEL508-508): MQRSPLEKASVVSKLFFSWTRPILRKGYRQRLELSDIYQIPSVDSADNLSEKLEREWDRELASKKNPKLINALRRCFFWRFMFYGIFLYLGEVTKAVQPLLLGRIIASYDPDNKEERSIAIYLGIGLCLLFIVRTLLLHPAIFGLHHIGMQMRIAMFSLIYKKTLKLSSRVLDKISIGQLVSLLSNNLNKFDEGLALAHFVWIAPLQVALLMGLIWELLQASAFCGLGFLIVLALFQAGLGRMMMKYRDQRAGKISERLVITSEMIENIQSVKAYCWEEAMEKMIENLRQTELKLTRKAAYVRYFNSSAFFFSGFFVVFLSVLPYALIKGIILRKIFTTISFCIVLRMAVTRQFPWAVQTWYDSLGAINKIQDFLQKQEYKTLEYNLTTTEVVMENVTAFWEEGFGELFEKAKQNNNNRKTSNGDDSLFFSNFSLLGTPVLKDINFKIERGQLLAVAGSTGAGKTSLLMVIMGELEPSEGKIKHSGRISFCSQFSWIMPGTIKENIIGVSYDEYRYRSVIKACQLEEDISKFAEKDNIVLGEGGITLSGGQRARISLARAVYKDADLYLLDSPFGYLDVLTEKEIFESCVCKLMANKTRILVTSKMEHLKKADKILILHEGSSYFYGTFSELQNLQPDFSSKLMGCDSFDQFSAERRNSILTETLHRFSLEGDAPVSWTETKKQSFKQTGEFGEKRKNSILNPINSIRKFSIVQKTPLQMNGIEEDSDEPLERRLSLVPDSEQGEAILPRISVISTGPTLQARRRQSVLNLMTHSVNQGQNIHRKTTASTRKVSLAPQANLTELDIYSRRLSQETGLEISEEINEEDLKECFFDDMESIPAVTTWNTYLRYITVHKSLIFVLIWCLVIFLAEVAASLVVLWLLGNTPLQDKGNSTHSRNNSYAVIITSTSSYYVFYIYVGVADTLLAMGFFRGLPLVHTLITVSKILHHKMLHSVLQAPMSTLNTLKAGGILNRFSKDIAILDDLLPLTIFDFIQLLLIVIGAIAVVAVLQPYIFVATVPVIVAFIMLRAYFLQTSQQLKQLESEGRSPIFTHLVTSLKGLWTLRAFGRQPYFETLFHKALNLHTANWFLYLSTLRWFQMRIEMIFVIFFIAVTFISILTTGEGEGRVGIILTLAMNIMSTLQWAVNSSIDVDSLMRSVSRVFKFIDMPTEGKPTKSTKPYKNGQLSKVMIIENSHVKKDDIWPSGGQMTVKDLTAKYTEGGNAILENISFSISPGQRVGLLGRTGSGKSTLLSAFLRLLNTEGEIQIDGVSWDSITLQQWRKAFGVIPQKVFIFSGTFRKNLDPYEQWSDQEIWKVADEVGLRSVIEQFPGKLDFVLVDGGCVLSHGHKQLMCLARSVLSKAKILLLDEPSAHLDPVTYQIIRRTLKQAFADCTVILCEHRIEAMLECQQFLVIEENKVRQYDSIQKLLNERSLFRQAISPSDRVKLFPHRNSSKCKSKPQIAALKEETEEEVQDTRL

SMILES	Ent. B Max Activity (CFTR [1]; Table 8)	EC50 (CFTR [1]; [3]) [nM]	Ent. A Max Activity (CFTR [2]; Table 7)	other results
Cc1cccc(C)c1-c1cc2nc(n1)NS(=O)(=O)c1cccc(c1)C(=O)N(CC1CC(O)(Cc3ccccc3)C1)[C@H](CC(C)(C)C)CO2 (single isomer, unassigned) [Compound 67]				Ent. B Max Activity (%) (CFTR [1]; Table 9): +++ (+++ is >600%); EC50 (CFTR [1]; Table 9): < 1000 nM
Cc1cccc(C)c1-c1cc2nc(n1)NS(=O)(=O)c1cccc(c1)C(=O)N(CC1CC(O)(Cc3ccccc3)C1)[C@H](CC(C)(C)C)CO2 (single isomer, unassigned) [Compound 68]				Ent. B Max Activity (%) (CFTR [1]; Table 9): +++ (+++ is >600%); EC50 (CFTR [1]; Table 9): < 1000 nM
Cc1cccc(C)c1-c1cc2nc(n1)NS(=O)(=O)c1cccc(c1)C(=O)N(C)CC(c1ccc(CC3(C(F)(F)F)CC3)cn1)O2 (single isomer, unassigned) [Compound 104, 6-(2,6-dimethylphenyl)-12-methyl-10-(5-{[1-(trifluoromethyl)cyclopropyl]methyl}pyridin-2-yl)-9-oxa-2λ^6-thia-3,5,12,19-tetraazatricyclo[12.3.1.14,8]nonadeca-1(17),4(19),5,7,14(18),15-hexaene-2,2,13-trione]	+++ (+++ is >60%)	< 1000		
Cc1cccc(C)c1-c1cc2nc(n1)NS(=O)(=O)c1cccc(c1)C(=O)N(C)CC(c1ccc(CC3(C(F)(F)F)CC3)cn1)O2 (single isomer, unassigned) [Compound 105, 6-(2,6-dimethylphenyl)-12-methyl-10-(5-{[1-(trifluoromethyl)cyclopropyl]methyl}pyridin-2-yl)-9-oxa-2λ^6-thia-3,5,12,19-tetraazatricyclo[12.3.1.14,8]nonadeca-1(17),4(19),5,7,14(18),15-hexaene-2,2,13-trione]	+ (+ is <30%)	< 1000		
Cc1cccc(C)c1-c1cc2nc(n1)NS(=O)(=O)c1cccc(c1)C(=O)N(CC1CCC(C)(O)CC1)[C@H](CC(C)(C)C)CO2 (single isomer, unassigned) [Compound 149]	+++ (+++ is >60%)	< 1000		
Cc1cccc(C)c1-c1cc2nc(n1)NS(=O)(=O)c1cccc(c1)C(=O)N(CC1CCC(C)(O)CC1)[C@H](CC(C)(C)C)CO2 (single isomer, unassigned) [Compound 150]	+++ (+++ is >60%)	< 1000		
Cc1cccc(C)c1-c1cc2nc(n1)NS(=O)(=O)c1cccc(c1)C(=O)N(CCCOC(F)(F)F)[C@H](CC(C)C)CO2 [Compound 42, (11R)-6-(2,6-Dimethylphenyl)-11-isobutyl-2,2-dioxo-12-[3-(trifluoromethoxy)propyl]-9-oxa-2λ^6-thia-3,5,12,19-tetrazatricyclo[12.3.1.14,8]nonadeca-1(18),4(19),5,7,14,16-hexaen-13-one]	+++ (+++ is >60%)	< 1000		
Cc1cccc(C)c1-c1cc2nc(n1)NS(=O)(=O)c1cccc(c1)C(=O)N(CC(C)(C)O)[C@H](CC(C)C)CO2 [Compound 43, (11R)-6-(2,6-Dimethylphenyl)-12-(2-hydroxy-2-methyl-propyl)-11-isobutyl-2,2-dioxo-9-oxa-2λ^6-thia-3,5,12,19-tetrazatricyclo[12.3.1.14,8]nonadeca 1(18),4(19),5,7,14,16-hexaen-13-one]	+++ (+++ is >60%)	< 1000		
Cc1cccc(C)c1-c1cc2nc(n1)NS(=O)(=O)c1cccc(c1)C(=O)N(Cc1ccnc(N)c1)[C@H](CC(C)(C)C)CO2 [Compound 61, (11R)-12-[(2-Amino-4-pyridyl)methyl]-6-(2,6-dimethylphenyl)-11-(2,2-dimethylpropyl)-2,2-dioxo-9-oxa-2λ^6-thia-3,5,12,19-tetrazatricyclo[12.3.1.14,8]nonadeca-1(18),4(19),5,7,14,16-hexaen-13-one]				Ent. B Max Activity (%) (CFTR [1]; Table 9): +++ (+++ is >600%); EC50 (CFTR [1]; Table 9): < 1000 nM
Cc1cccc(C)c1-c1cc2nc(n1)NS(=O)(=O)c1cccc(c1)C(=O)N(CC13CC(C(C)(C)O)(C1)C3)[C@H](CC(C)(C)C)CO2 [Compound 69, (11R)-6-(2,6-Dimethylphenyl)-11-(2,2-dimethylpropyl)-12-[[3-(1-hydroxy-1-methyl-ethyl)-1-bicyclo[1.1.1]pentanyl]methyl]-2,2-dioxo-9-oxa-2λ^6-thia-3,5,12,19-tetrazatricyclo[12.3.1.14,8]nonadeca-1(18),4(19),5,7,14,16-hexaen-13-one]				Ent. B Max Activity (%) (CFTR [1]; Table 9): +++ (+++ is >600%); EC50 (CFTR [1]; Table 9): < 1000 nM
Cc1cccc(C)c1-c1cc2nc(n1)NS(=O)(=O)c1cccc(c1)C(=O)N(CCN1CCOCC1)[C@H](CC(C)C)CO2 [Compound 1108]				Ent. A Max Activity (CFTR [2]; Table 6): +++ (+++ is >60%); EC50 (CFTR [2]; Table 6): < 1000 nM
Cc1cccc(C)c1-c1cc2nc(n1)NS(=O)(=O)c1cccc(c1)C(=O)N(Cc1ccc(=O)[nH]c1)[C@H](CC(C)C)CO2 [Compound 1109]				Ent. A Max Activity (CFTR [2]; Table 6): +++ (+++ is >60%); EC50 (CFTR [2]; Table 6): 1000 to 3000 nM

Further lines, with some results ahead:

Ent. B Max Activity (CFTR [1]; Table 8)	EC50 (CFTR [1]; [3]) [nM]	Ent. A Max Activity (CFTR [2]; Table 7)	SMILES	other results
+++ (+++ is >60%)	< 1000		Cc1cccc(C)c1-c1cc2nc(n1)NS(=O)(=O)c1cccc(c1)CN(CCCCO)[C@H](CC(C)C)CO2 [Compound 46, 4-[(11R)-6-(2,6-Dimethylphenyl)-11-isobutyl-2,2-dioxo-9-oxa-2λ^6-thia-3,5,12,19-tetrazatricyclo[12.3.1.14,8]nonadeca-1(18),4(19),5,7,14,16-hexaen-12-yl]butan-1-ol]	
		+ (+ is <30%)	COC1CCC(CC(=O)N2Cc3cccc(c3)S(=O)(=O)Nc3nc(cc(-c4c(C)cccc4C)n3)OC[C@H]2CC(C)C)CC1 (stereo partly shown) [Compound 1045]	
		+ (+ is <30%)	Cc1cccc(C)c1-c1cc2nc(n1)NS(=O)(=O)c1cccc(c1)CN(C(=O)CC(C)(C)C)[C@H](CC(C)C)CO2 [Compound 1046]	
		+ (+ is <30%)	COC1CCC(CC(=O)N2Cc3cccc(c3)S(=O)(=O)Nc3nc(cc(-c4c(C)cccc4C)n3)OC[C@H]2CC(C)C)CC1 (stereo partly shown) [Compound 1047]	
		+++ (+++ is >60%)	Cc1cccc(C)c1-c1cc2nc(n1)NS(=O)(=O)c1cccc(c1)CN(C(=O)CC1CCN(C)CC1)[C@H](CC(C)C)CO2 [Compound 1048]	EC50 (CFTR [2]; Table 7): 1000 to 3000 nM
		+ (+ is <30%)	Cc1cccc(C)c1-c1cc2nc(n1)NS(=O)(=O)c1cccc(c1)CN(C(=O)CC(C)C)[C@H](CC(C)C)CO2 [Compound 1049]	
		+ (+ is <30%)	Cc1cccc(C)c1-c1cc2nc(n1)NS(=O)(=O)c1cccc(c1)CN(C(=O)CC1CCCCC1)[C@H](CC(C)C)CO2 [Compound 1050]	EC50 (CFTR [2]; Table 7): 1000 to 3000 nM
		++ (++ is 30-60%)	Cc1cccc(C)c1-c1cc2nc(n1)NS(=O)(=O)c1cccc(c1)CN(C(=O)Cc1ccccc1)[C@H](CC(C)C)CO2 [Compound 1051]	EC50 (CFTR [2]; Table 7): 1000 to 3000 nM
		++ (++ is 30-60%)	CCCC(=O)N1Cc2cccc(c2)S(=O)(=O)Nc2nc(cc(-c3c(C)cccc3C)n2)OC[C@H]1CC(C)C [Compound 1052]	
